Source: ChEMBL document CHEMBL1909294, “Translating clinical findings into knowledge in drug safety evaluation--drug induced liver injury prediction system (DILIps)” (PLoS Comput Biol, 2011)

How the values were obtained:
Hepatotoxicity [1] = tested on: Hepatotoxicity;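 as to HepSE bilirubinemia: bilirubinemia hepatic side effect score drawn from the DILIps training data, a prediction system for drug-induced liver injury; call rule not given here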;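 as to HepSE cholecystitis: Cholecystitis-related hepatic side effect score drawn from the DILIps (drug-induced liver injury prediction) training data set; call rule not given here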;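 as to HepSE cholelithiasis: hepatic side effect score for cholelithiasis, drawn from the DILIps training data for predicting drug-induced liver injury; call rule not given here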;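 as to HepSE cirrhosis: cirrhosis hepatic side effect score taken from the DILIps (drug-induced liver injury prediction) training set; call rule not given here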;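 as to HepSE elevated liver function tests: hepatic side effect score for raised liver function tests, as recorded in the DILIps training set used for predicting drug-induced liver injury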; as to HepSE hepatic failure: call rule not given here;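 as to HepSE hepatomegaly: hepatic side effect score for hepatomegaly, taken from the training set of the DILIps drug-induced liver injury prediction system; call rule not given here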
Hepatotoxicity [2] = tested on: Hepatotoxicity; remark: listed apart in the source;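 as to HepSE bilirubinemia: bilirubinemia hepatic side effect score drawn from the DILIps training data, a prediction system for drug-induced liver injury; call rule not given here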;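 as to HepSE cholecystitis: Cholecystitis-related hepatic side effect score drawn from the DILIps (drug-induced liver injury prediction) training data set; call rule not given here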;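 as to HepSE cholelithiasis: hepatic side effect score for cholelithiasis, drawn from the DILIps training data for predicting drug-induced liver injury; call rule not given here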;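 as to HepSE cirrhosis: cirrhosis hepatic side effect score taken from the DILIps (drug-induced liver injury prediction) training set; call rule not given here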;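 as to HepSE elevated liver function tests: hepatic side effect score for raised liver function tests, as recorded in the DILIps training set used for predicting drug-induced liver injury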; as to HepSE hepatic failure: call rule not given here
Hepatotoxicity [3] = tested on: Hepatotoxicity; remark: listed apart in the source;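 as to HepSE bilirubinemia: bilirubinemia hepatic side effect score drawn from the DILIps training data, a prediction system for drug-induced liver injury; call rule not given here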;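 as to HepSE cholecystitis: Cholecystitis-related hepatic side effect score drawn from the DILIps (drug-induced liver injury prediction) training data set; call rule not given here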;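 as to HepSE cholelithiasis: hepatic side effect score for cholelithiasis, drawn from the DILIps training data for predicting drug-induced liver injury; call rule not given here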;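 as to HepSE cirrhosis: cirrhosis hepatic side effect score taken from the DILIps (drug-induced liver injury prediction) training set; call rule not given here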;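 as to HepSE elevated liver function tests: hepatic side effect score for raised liver function tests, as recorded in the DILIps training set used for predicting drug-induced liver injury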; as to HepSE hepatic failure: call rule not given here
Hepatotoxicity [4] = tested on: Hepatotoxicity; remark: listed apart in the source;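 as to HepSE bilirubinemia: bilirubinemia hepatic side effect score drawn from the DILIps training data, a prediction system for drug-induced liver injury; call rule not given here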;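 as to HepSE cholecystitis: Cholecystitis-related hepatic side effect score drawn from the DILIps (drug-induced liver injury prediction) training data set; call rule not given here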;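 as to HepSE cholelithiasis: hepatic side effect score for cholelithiasis, drawn from the DILIps training data for predicting drug-induced liver injury; call rule not given here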;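 as to HepSE cirrhosis: cirrhosis hepatic side effect score taken from the DILIps (drug-induced liver injury prediction) training set; call rule not given here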;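 as to HepSE elevated liver function tests: hepatic side effect score for raised liver function tests, as recorded in the DILIps training set used for predicting drug-induced liver injury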; as to HepSE hepatic failure: call rule not given here
Hepatotoxicity [5] = tested on: Hepatotoxicity; remark: listed apart in the source; as to HepSE hepatic failure: call rule not given here
Hepatotoxicity [6] = tested on: Hepatotoxicity; remark: listed apart in the source; as to HepSE hepatic failure: call rule not given here
Hepatotoxicity [7] = tested on: Hepatotoxicity; remark: listed apart in the source
Hepatotoxicity [8] = tested on: Hepatotoxicity; remark: listed apart in the source
Hepatotoxicity [9] = tested on: Hepatotoxicity; remark: listed apart in the source
Hepatotoxicity [10] = tested on: Hepatotoxicity; remark: listed apart in the source
Hepatotoxicity [11] = tested on: Hepatotoxicity; remark: listed apart in the source
Hepatotoxicity [12] = tested on: Hepatotoxicity; remark: listed apart in the source
Hepatotoxicity [13] = tested on: Hepatotoxicity; remark: listed apart in the source
Hepatotoxicity [14] = tested on: Hepatotoxicity; remark: listed apart in the source

| Compound | HepSE_bilirubinemia (Hepatotoxicity [1]) | HepSE_cholecystitis (Hepatotoxicity [2]) | HepSE_cholelithiasis (Hepatotoxicity [3]) | HepSE_cirrhosis (Hepatotoxicity [4]) | HepSE_elevated liver function tests (Hepatotoxicity [5]) | HepSE_hepatic failure (Hepatotoxicity [6]) | HepSE_hepatic necrosis (Hepatotoxicity [7]) | HepSE_hepatitis (Hepatotoxicity [8]) | HepSE_hepatomegaly (Hepatotoxicity [9]) | HepSE_jaundice (Hepatotoxicity [10]) | HepSE_liver disease (Hepatotoxicity [11]) | HepSE_liver fatty (Hepatotoxicity [12]) | HepSE_liver function tests abnormal (Hepatotoxicity [13]) | HepSE_Combined Scores (Hepatotoxicity [14]) | other results |
| --- | --- | --- | --- | --- | --- | --- | --- | --- | --- | --- | --- | --- | --- | --- | --- |
| CC[C@]1(O)C[C@H]2CN(CCc3c([nH]c4ccccc34)[C@@](C(=O)OC)(c3cc4c(cc3OC)N(C=O)[C@H]3[C@@](O)(C(=O)OC)[C@H](OC(C)=O)[C@]5(CC)C=CCN6CC[C@]43[C@@H]65)C2)C1 [VINCRISTINE] | 0 | 0 | 0 | 0 | 0 | 0 | 0 | 0 | 0 | 0 | 0 | 0 | 0 | 0 | – |
| CC[C@@]1(O)C(=O)OCc2c1cc1n(c2=O)Cc2cc3c(CN(C)C)c(O)ccc3nc2-1 [TOPOTECAN] | 1 | 0 | 0 | 0 | 0 | 0 | 0 | 0 | 0 | 0 | 0 | 0 | 0 | 1 | – |
| CC(C)NCC(O)COc1ccc(CCOCC2CC2)cc1 (stereo not drawn) [BETAXOLOL] | – | – | – | – | – | – | – | – | – | – | – | – | – | – | HepSE_bilirubinemia (Hepatotoxicity [1]; Liver): 0; HepSE_cholecystitis (Hepatotoxicity [2]; Liver): 0; HepSE_cholelithiasis (Hepatotoxicity [3]; Liver): 0; HepSE_cirrhosis (Hepatotoxicity [4]; Liver): 0; HepSE_elevated liver function tests (Hepatotoxicity [5]; Liver): 0; HepSE_hepatic failure (Hepatotoxicity [6]; Liver): 0; HepSE_hepatic necrosis (Hepatotoxicity [7]; Liver): 0; HepSE_hepatitis (Hepatotoxicity [8]; Liver): 0; HepSE_hepatomegaly (Hepatotoxicity [9]; Liver): 0; HepSE_jaundice (Hepatotoxicity [10]; Liver): 0; HepSE_liver disease (Hepatotoxicity [11]; Liver): 0; HepSE_liver fatty (Hepatotoxicity [12]; Liver): 0; HepSE_liver function tests abnormal (Hepatotoxicity [13]; Liver): 0; HepSE_Combined Scores (Hepatotoxicity [14]; Liver): 0 |
| Cc1nc2n(c(=O)c1CCN1CCC(c3noc4cc(F)ccc34)CC1)CCCC2O (stereo not drawn) [PALIPERIDONE] | 0 | 0 | 0 | 0 | 0 | 0 | 0 | 0 | 0 | 0 | 0 | 0 | 0 | 0 | – |
| BLEOMYCIN | 0 | 0 | 0 | 0 | 0 | 0 | 0 | 0 | 0 | 0 | 0 | 0 | 0 | 0 | – |
| CC(C)C[C@H]1C(=O)N2CCC[C@H]2[C@]2(O)O[C@](NC(=O)[C@@H]3C=C4c5cccc6[nH]c(Br)c(c56)C[C@H]4N(C)C3)(C(C)C)C(=O)N12 [BROMOCRIPTINE] | 0 | 0 | 0 | 0 | 0 | 0 | 0 | 0 | 0 | 0 | 0 | 0 | 0 | 0 | – |
| CO[C@H]1/C=C/O[C@@]2(C)Oc3c(C)c(O)c4c(O)c(c(/C=N/N5CCN(C6CCCC6)CC5)c(O)c4c3C2=O)NC(=O)/C(C)=C\C=C\[C@H](C)[C@H](O)[C@@H](C)[C@@H](O)[C@@H](C)[C@H](OC(C)=O)[C@@H]1C [RIFAPENTINE] | 1 | 0 | 0 | 0 | 0 | 0 | 0 | 1 | 0 | 0 | 0 | 0 | 0 | 2 | – |
| CN(C)CCCC1(c2ccc(F)cc2)OCc2cc(C#N)ccc21 (stereo not drawn) [CITALOPRAM] | 1 | 1 | 1 | 0 | 0 | 1 | 1 | 1 | 0 | 1 | 0 | 0 | 0 | 7 | – |
| N[C@@H]1C[C@H]1c1ccccc1.N[C@H]1C[C@@H]1c1ccccc1 [TRANYLCYPROMINE] | – | – | – | – | – | – | – | – | – | – | – | – | – | – | HepSE_bilirubinemia (Hepatotoxicity [1]; Liver): 0; HepSE_cholecystitis (Hepatotoxicity [2]; Liver): 0; HepSE_cholelithiasis (Hepatotoxicity [3]; Liver): 0; HepSE_cirrhosis (Hepatotoxicity [4]; Liver): 0; HepSE_elevated liver function tests (Hepatotoxicity [5]; Liver): 0; HepSE_hepatic failure (Hepatotoxicity [6]; Liver): 0; HepSE_hepatic necrosis (Hepatotoxicity [7]; Liver): 0; HepSE_hepatitis (Hepatotoxicity [8]; Liver): 1; HepSE_hepatomegaly (Hepatotoxicity [9]; Liver): 0; HepSE_jaundice (Hepatotoxicity [10]; Liver): 0; HepSE_liver disease (Hepatotoxicity [11]; Liver): 0; HepSE_liver fatty (Hepatotoxicity [12]; Liver): 0; HepSE_liver function tests abnormal (Hepatotoxicity [13]; Liver): 0; HepSE_Combined Scores (Hepatotoxicity [14]; Liver): 1 |
| CCNC(=O)[C@@H]1CCCN1C(=O)[C@H](CCCNC(=N)N)NC(=O)[C@H](CC(C)C)NC(=O)[C@@H](COC(C)(C)C)NC(=O)[C@H](Cc1ccc(O)cc1)NC(=O)[C@H](CO)NC(=O)[C@H](Cc1c[nH]c2ccccc12)NC(=O)[C@H](Cc1cnc[nH]1)NC(=O)[C@@H]1CCC(=O)N1 [BUSERELIN] | 0 | 0 | 0 | 0 | 0 | 0 | 0 | 0 | 0 | 0 | 0 | 0 | 0 | 0 | – |
| CCCC(=O)Nc1ccc(OCC(O)CNC(C)C)c(C(C)=O)c1 (stereo not drawn) [ACEBUTOLOL] | 0 | 0 | 0 | 0 | 0 | 0 | 0 | 0 | 0 | 0 | 0 | 0 | 0 | 0 | – |
| CCN(CC)CCNC(=O)c1ccc(N)cc1 [PROCAINAMIDE] | 0 | 0 | 0 | 0 | 0 | 1 | 0 | 0 | 1 | 0 | 0 | 0 | 0 | 2 | – |
